In experiment [1] the test system is Bacillus subtilis (ATCC 6051). The experiment is described as follows: Broth assay of killing action of antibiotic alone and with lysergol (viable cell count). The note with it: B. subtilis; antibiotic 0.4 μg/ml.
The test system of experiment [2] is Escherichia coli (ATCC 10536). The description is as above. The note with it: E. coli.
In experiment [3] the test system is Mycobacterium smegmatis (ATCC 14468). The description is as above. The conditions noted are these: M. smegmatis; antibiotic 0.2 μg/ml.
The subject of the next experiment is bacteria. As to the kind of experiment: Growth of bacteria in presence of lysergol alone. The conditions noted are these: bacteria grown in presence of lysergol alone. The experiment is classed as cell-based. The text has this:
1. […] Process for the Isolation of Lysergol

Consider `CO[C@H]1/C=C/O[C@@]2(C)Oc3c(C)c(O)c4c(O)c(c(/C=N/N5CCN(C)CC5)c(O)c4c3C2=O)NC(=O)/C(C)=C\C=C\[C@H](C)[C@H](O)[C@@H](C)[C@@H](O)[C@@H](C)[C@H](OC(C)=O)[C@@H]1C` [Rifampicin], for which the “Survival fraction of viable cells upon treatment with antibiotic alone” value is reported as 0.085-0.096 in experiment [1], 0.35-0.45 in experiment [2] (antibiotic 10 μg/ml), 0.25-0.30 in experiment [2] (antibiotic 20 μg/ml) and 0.45-0.54 in experiment [3].
`CN1C[C@H](CO)C=C2c3cccc4[nH]cc(c34)C[C@H]21` [lysergol, 9,10-Didehydro-6-methylergoline-8-[…]-methanol]: in the experiment with bacteria, the “Killing of bacteria by the compound as such” value is given as “no significant killing”.

(Values after patent US20070060604A1, “Antibiotic pharmaceutical composition with lysergol as bio-enhancer and method of treatment” (COUNCIL OF SCIENTIFIC AND INDUSTRIAL RESEARCH, priority 2002, published 2007).)
